Assay results: US4443607A, “1(2H)-Isoquinolone compounds and acid addition salts thereof” (priority 1981, dated 1984)
“And” between values parts separate entries of the source, which are not always exact repeats. Identical values can stand only once. Counter-ions that a name gives are not always drawn.

What was measured:
stress ulcer [1] = experiment: Stress Ulcer (2), fasted rats in stress cage dipped in water; format: in vivo, Wistar male rats; details: for Percent Inhibition / Ulcerous Index: 25 mg/kg oral, fasted 18 h; for Ulcerous Index: 7 h water immersion at 23° C., 7 rats, mean ± SD
Procedure: The test compound was administered orally to Wistar male rats (body weight, 180 to 200 g) which fasted for 18 hours before testing. 30 minutes thereafter, stress was loaded to the rats in a stress cage by dipping the cage into water at 23° C. to the level of the xiphisternum of rats. After leaving the rats in water for 7 hours, the rats were sacrificed and the stomach was extracted. The stomach was then worked up in the same manner as above to determine the ulcerous index.

gastric secretion = experiment: Gastric secretion inhibitory activity in pylorus-ligated rats; format: in vivo, Wistar male rats; details: for Percent Inhibition (gastric juice) / Percent Inhibition (output secretion) / Amount of Gastric Juice / Amount of Output Secretion: 25 mg/kg into duodenum, 5 h; for Amount of Gastric Juice / Amount of Output Secretion: 10 rats, mean ± SD
Procedure: Five hours after the administration, the rats were sacrificed and gastric juice was collected. The volume and the pH value of the gastric juice and the degree of acid secretion were then determined.

stress ulcer [2] = experiment: Stress Ulcer (1), water-dipping restriction stress, non-fasted rats tied with steel wire; format: in vivo, Wistar male rats; details: 50 mg/kg oral
Procedure: The test compound was administered orally to Wistar male rats (body weight, 200 to 230 g) and 30 minutes thereafter the rats were tied up with a steel wire and dipped in water at 23° C. in a tank to the level of the xiphisternum of rats. After leaving the rats in water for 7 hours, the rats were sacrificed and the stomach was extracted. 10 ml of a 1% formalin solution was injected into the stomach cavity and the stomach was dipped in a 1% formalin solution for 15 minutes to semi-harden the stomach.

blood pressure = experiment: Anti-hypertensive activity in anesthetized cats; format: in vivo; details: 5 to 10 mg/kg via femoral vein; urethane anesthesia
Procedure: Cats weighing 3 to 5 kg were anesthetized by intraperitoneal administration of urethane at a dose of 1.5 g/kg. The test compound was administered through a catheter into a femoral vein and the blood pressure was determined by a pressure transducer through a catheter inserted into the femoral artery.

[3] = test system: blood flow in stomach mucous membrane; experiment: Recovery activity on blood flow decrease in stomach mucous membrane by blood drawing; format: in vivo, Wistar male rats; details: 10 mg/kg intravenous
Procedure: Wistar male rats (body weight, 250 to 280 g) fasted for 24 hours and the blood flow in stomach mucous membrane was determined by the aminopyrin clearance method as described above under urethane anesthesia. After determination of blood flow, a blood sample was drawn in an amount equivalent to 3% of the body weight and, 5 minutes thereafter, the blood sample was reinstated. The blood flow was then determined at an interval of 15 minutes. The test compound was administered intravenously 15 minutes after the blood drawing.

[4] = test system: stomach mucous membrane blood flow; experiment: Blood flow increasing activity on stomach mucous membrane (aminopyrin clearance method); format: in vivo, Wistar male rats; details: 3 mg/kg intravenous
aspirin-induced ulcer = experiment: Aspirin Ulcer in pylorus-ligated rats; format: in vivo, Wistar male rats; details: for Percent Inhibition / Ulcerous Index: aspirin 100 mg/kg oral; for Ulcerous Index: mean ± SE
Procedure: The pylorus of Wistar male rats (body weight, 230 to 250 g) which fasted for 24 hours was ligated and, immediately thereafter, the test compound was administered into the duodenum. 15 hours thereafter, acetylsalicylic acid (Aspirin) was administered orally at a dose of 100 mg/kg. Seven hours after administration of acetylsalicylic acid, the rats were sacrificed and the gastric juice was collected. the stomach was then worked up in the same manner as above to determine the ulcerous index.

Structure (SMILES) | Percent Inhibition (stress ulcer [1]) | Ulcerous Index (stress ulcer [1]) | Percent Inhibition (gastric juice) (gastric secretion) | Percent Inhibition (output secretion) (gastric secretion) | Amount of Gastric Juice (gastric secretion) | Amount of Output Secretion (gastric secretion) | inhibition of ulcer generation (in words) (stress ulcer [2]) | duration of blood pressure lowering activity (blood pressure) | other results
CC(C)[N+](C)(CCOC(=O)C1c2ccccc2Oc2ccccc21)C(C)C [Propantheline Bromide] | 51.9% | 14.9 ± 10.67 mm | 56.5% | 58.8% | 1.46 ± 0.63 mL | 118.8 ± 63.51 μ Eq. |  |  | 
CN/C(=N/CCSCc1nc[nH]c1C)NC#N [Cimetidine] |  |  | 32.7% | 52.6% | 2.26 ± 0.85 mL | 136.6 ± 74.19 μ Eq. |  |  | 
C=CCN(CC=C)CC(C)Cn1cc(-c2ccccc2)c2ccccc2c1=O (stereo not shown) [Compound B, 2-(3-N,N-diallylamino-2-methylpropyl)-4-phenyl-1(2H)-isoquinolone hydrochloride] |  |  |  |  |  |  | inhibit the ulcer generation caused by water-dipping restriction stress | more than 2 hours | 
CC(N)Cn1cc(-c2ccccc2)c2ccccc2c1=O.O=C(O)/C=C\C(=O)O (stereo not shown) [Compound C, 2-(2-aminopropyl)-4-phenyl-1(2H)-isoquinolone maleate] | 52.8% | 14.6 ± 8.70 mm | 54.2% | 56.3% | 1.54 ± 0.58 mL | 126.0 ± 40.42 μ Eq. |  |  | recovery activity on blood flow decrease (in words) [3]: significant recovery activity on blood flow decrease in stomach mucous membrane by blood drawing; Blood Flow in Mucous Membrane, 15 min. ([3]; 15 min., 3 rats, mean ± SD): 88.4 ± 36.9%; Blood Flow in Mucous Membrane, 30 min. ([3]; 30 min., 3 rats, mean ± SD): 92.7 ± 23.5%; Blood Flow in Mucous Membrane, 45 min. ([3]; 45 min., 3 rats, mean ± SD): 98.2 ± 10.2%; Blood Flow in Mucous Membrane, 60 min. ([3]; 60 min., 3 rats, mean ± SD): 101.4 ± 8.8%; Blood Flow in Mucous Membrane, 0 ([3]; time 0 (baseline), 3 rats): 100%; stress ulcer inhibitory activity (in words) (stress ulcer [1]; compared with propantheline bromide): substantially equivalent to that of propantheline bromide; gastric secretion inhibitory activity (in words) (gastric secretion; compared with propantheline bromide and Cimetidine): substantially equivalent to that of propantheline bromide but higher than that of Cimetidine
C=CCN(CC=C)C(C)Cn1cc(-c2ccccc2)c2ccccc2c1=O (stereo not shown) [Compound A, 2-(2-N,N-diallylaminopropyl)-4-phenyl-1(2H)-isoquinolone maleate] |  |  |  |  |  |  | inhibit the ulcer generation caused by water-dipping restriction stress | more than 2 hours | time of maximum percent increase in blood flow [4]: 30 min; stomach mucous membrane blood flow increasing activity (in words) ([4]; 15, 30 and 45 minutes after administration): significance increasing activity on the stomach mucous membrane blood flow; percent increase in blood flow (maximum) ([4]; 30 minutes): about 50%; Percent Inhibition (stress ulcer [2]; 7 h water immersion at 23° C.): 62.2% and 75.5%; Ulcerous Index (stress ulcer [2]; 7 h water immersion at 23° C., 6 rats, mean ± SD): 10.5 ± 6.22 mm and 6.8 ± 3.19 mm; Percent Inhibition (aspirin-induced ulcer; 10 mg/kg i.d.): 29.41%; Ulcerous Index (aspirin-induced ulcer; 10 mg/kg i.d.): 42.28 ± 2.56 mm; Percent Inhibition (aspirin-induced ulcer; 25 mg/kg i.d.): 42.98%; Ulcerous Index (aspirin-induced ulcer; 25 mg/kg i.d.): 34.15 ± 4.37 mm; Percent Inhibition (aspirin-induced ulcer; 50 mg/kg i.d.): 57.52%; Ulcerous Index (aspirin-induced ulcer; 50 mg/kg i.d.): 25.44 ± 3.41 mm; inhibition of aspirin-induced ulcer (in words) (aspirin-induced ulcer; 10, 25, 50 mg/kg i.d.): inhibits the aspirin-induced ulcer at dose levels of 10, 25, 50 mg/kg, with dependency upon dose
